Data published in patent US20230348520A1, “COMPOUND COMPRISING BETA-NICOTINAMIDE MONONUCLEOTIDE OR PHARMACOLOGICALLY ACCEPTABLE SALT THEREOF, AND METHOD FOR EVALUATING QUALITY AND METHOD FOR ASSESSING ENZYMATIC REACTIVITY OF SAID COMPOUND” (ORIENTAL YEAST CO., LTD., priority 2020, published 2023).

Legend:
[1] = test system: HEK293 cells; test: Cytotoxicity rate from intra- and extracellular AST activities in culture cells (Test Example 5); type: cell-based; conditions: nonadherent HEK293 cells; 0.1 mM β-NMN; shake-cultured seven days without exchange of the medium; FIGS. 5A, 5B
[2] = biological target: R-LDH5 (lactate dehydrogenase (LDH) 5, SEQ ID NO: 1, derived from skeletal muscle) (Oryctolagus cuniculus, UniProt P13491, L277I/T249S); test: Evaluation of enzymatic reactivity with lactate dehydrogenase R-LDH5 (Test Examples 1 and 2); type: biochemical; conditions: 19 mM β-NMN in R1 reagent; R-LDH5 245 U/mL final; 37° C.; 340 nm; one unit = 0.1 mAbs change in absorbance per minute; average of three measurements
From the text: The lactate dehydrogenase is preferably lactate dehydrogenase derived from mammalian skeletal muscle, and more preferably lactate dehydrogenase (LDH) 5 (hereinafter may be referred to as “R-LDHS”). The R-LDHS has an amino acid sequence as set forth in SEQ ID NO: 1, is composed of a tetramer of sub-units, and is derived from skeletal muscle. Other lactate dehydrogenases of any mammal can also be used, such as porcine lactate dehydrogenase (LDH) 1, human lactate dehydrogenase (LDH) 1, and human lactate dehydrogenase (LDH) 5. The LDH catalyzes dehydrogenation of lactic acid as a substrate, to convert the lactic acid to pyruvic acid. At this time, the β-NMN is converted to a reduced form of β-NMN (see FIG. 1).
In the present invention, the enzymatic reactivity refers to a value obtained through measurement using the following reagents and method.
(The purity of the β-NMN in a measurement sample is assumed to be 100%. Also, the β-NMN is dissolved in an 80 mM sodium carbonate solution in advance.)
The enzyme solution is prepared so that the LDH is to be 245 U/mL as a final concentration in a reaction liquid.
In the present invention, the activity unit (U) of the LDH is an activity unit measured by the human LDH measurement method according to IFCC when using NAD as a coenzyme.
An enzyme activity is measured using a 7180 type Hitachi automatic analyzer (obtained from Hitachi High-Tech Corporation). Measurement parameters are as follows.
Analysis method: Rate A Measurement wavelength (sub/main): 405 nm/340 nm Reaction duration: 10 minutes Photometric points: 20 to 24 Sample liquid (enzyme solution): 18 μL R1 reagent: 120 μL R2 reagent: 87 μL
18 μL of the enzyme solution and 120 μL of the R1 reagent are mixed. The resulting mixture is incubated at 37° C. for 4.5 minutes (photometric points 1 to 16), followed by addition of 87 μL of the R2 reagent, to initiate reaction (photometric point 17). From the absorbance of the measurement sample one to two minutes after initiation of the reaction (photometric points 20 to 24), the absorbance of water (blank) at the same photometric points is subtracted, to calculate a value of change in absorbance per minute (ΔmAbs/min). Regarding the activity unit (the unit of reactivity with the lactate dehydrogenase R-LDH5), 0.1 mAbs as the value of change in absorbance per minute is defined as one unit.
By the following method, the β-NMN compound of the present invention (Production Example 1) and β-NMN products 1 to 3 were measured for the enzymatic reactivity with R-LDHS (SEQ ID NO: 1). Note that, the measurement results are average values in the measurement performed three times.
(The purity of the β-NMN in a measurement sample was assumed to be 100%. Also, the β-NMN was dissolved in an 80 mM sodium carbonate solution in advance.)
The enzyme solution was prepared so that the R-LDH5 was to be 245 U/mL as a final concentration in a reaction liquid.
An enzyme activity was measured using a 7180 type Hitachi automatic analyzer (obtained from Hitachi High-Tech Corporation). Measurement parameters are as follows.
Analysis method: Rate A Measurement wavelength (sub/main): 405 nm/340 nm Reaction duration: 10 minutes Photometric points: 20 to 24 Sample liquid (enzyme solution): 18 μL
18 μL of the enzyme solution and 120 μL of the R1 reagent were mixed. The resulting mixture was incubated at 37° C. for 4.5 minutes (photometric points 1 to 16), followed by addition of 87 μL of the R2 reagent, to initiate reaction (photometric point 17). Measurements were taken for five minutes after initiation of the reaction. From the absorbance of the measurement sample at minute one to minute two after the initiation (photometric points 20 to 24), the absorbance of water (blank) at the same photometric points was subtracted, to calculate a value of change in absorbance per minute (ΔmAbs/min). Regarding the activity unit, 0.1 mAbs as the value of change in absorbance per minute was defined as one unit. […]

[3] = test system: HEK293 cells; test: Intracellular NAD content in culture cells (Test Example 5); type: cell-based; conditions: nonadherent HEK293 cells; 0.1 mM β-NMN; shake-cultured seven days without exchange of the medium; FIGS. 6A, 6B
Experimental: In order to evaluate biological activities of the β-NMN compounds of Production Example 1 and the β-NMN product 3, culture cells were cultured in a medium containing the β-NMN compound, to measure change in intracellular NAD.
The culture cells used were HEK293 cells that had been treated to be nonadherent. The medium used was FreeStyle™ 293 Expression Medium (obtained from Thermo Fisher Scientific).
First, the HEK293 cells, which had been treated to be nonadherent, were disseminated in the medium so as to have a concentration of 1×10^6 cells/mL. The resulting medium was dispensed into six 125 mL-flasks by 30 mL each. The flasks were supplemented with the β-NMN compounds of Production Example 1 and the β-NMN product 3 so as to have a final concentration of 0 or 0.1 mM. Without exchange of the medium, the cells were shake-cultured for seven days in a CO2 incubator at 37° C.
After shake-culturing for seven days, the cells and the culture supernatant were recovered for various analyses. […] Specifically, the recovered cells were weighed and were extracted with Extraction buffer attached to a kit, and the resulting extract was measured for NAD. The intracellular NAD content was calculated based on a calibration curve obtained by measuring NAD solutions of various concentrations.

[4] = biological target: R-LDH5 (lactate dehydrogenase, SEQ ID NO: 1) (Oryctolagus cuniculus, UniProt P13491, L277I/T249S); test: Dependency of LDH activity value on β-NMN compound concentration, R-LDH5 (Test Example 4); type: biochemical; conditions: R-LDH5 245 U/mL; for relative activity value of LDH, dependency on β-NMN concentration: 0-200 mM β-NMN in R1 reagent, compared with Production Example 1, FIGS. 4B, 4C
Experimental: (§1) In order to confirm dependency of a LDH activity value on the β-NMN compound concentration, the β-NMN compound produced in Production Example 1 and β-NMN products 1 to 3 the same as those used in Test Example 1 were used for measurement of an enzyme activity of LDH at varied concentrations of the β-NMN in the R1 reagent.
(§2) The enzyme activity of LDH was measured in the same manner as in [Evaluation of enzymatic reactivity] of Test Example 1 except that the following R1 reagent and enzyme solution were used, to calculate a value of change in absorbance per minute (ΔmAbs/min). Regarding as 100% the activity value of LDH when the β-NMN compound of Production Example 1 was used at 200 mM, the relative activity values (%) in each NMN at each concentration are presented in FIGS. 4A to 4F (FIGS. 4A to 4C: R-LDH5 and FIGS. 4D and 4F: human LDH1). Note that, the measurement results are average values in the measurement performed three times.
(§3) (The purity of the β-NMN in a measurement sample was assumed to be 100%. Also, the β-NMN was dissolved in a 100 mM sodium carbonate solution in advance.)
An enzyme solution was prepared so that the LDH was to be 245 U/mL as a final concentration in a reaction liquid.

[5] = biological target: human lactate dehydrogenase (LDH) 1 (SEQ ID NO: 2) (Homo sapiens, UniProt P07195); test: Dependency of LDH activity value on β-NMN compound concentration, human LDH1 (Test Example 4); type: biochemical; conditions: human LDH1 45 U/mL; 0-200 mM β-NMN in R1 reagent; compared with Production Example 1; FIGS. 4D to 4F
Chain of human lactate dehydrogenase (LDH) 1 (SEQ ID NO: 2) (P07195 whole entry): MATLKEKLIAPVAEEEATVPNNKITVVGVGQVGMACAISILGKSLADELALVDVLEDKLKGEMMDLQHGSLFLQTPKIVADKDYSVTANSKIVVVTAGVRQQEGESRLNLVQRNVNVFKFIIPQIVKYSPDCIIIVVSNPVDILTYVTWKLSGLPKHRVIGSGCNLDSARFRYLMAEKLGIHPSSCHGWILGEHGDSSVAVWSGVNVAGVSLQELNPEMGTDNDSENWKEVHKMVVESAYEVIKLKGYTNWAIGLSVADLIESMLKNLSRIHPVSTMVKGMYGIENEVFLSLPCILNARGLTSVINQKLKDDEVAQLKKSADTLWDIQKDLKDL
Experimental: as §1, §2, §3
An enzyme solution was prepared so that the LDH was to be 45 U/mL as a final concentration in a reaction liquid.

| SMILES | cytotoxicity rate determined based on intra- and extracellular AST activities [1] | Enzymatic reactivity (unit) [2] | intracellular NAD content [3] | enzymatic activity of LDH at a β-NMN concentration of 200 mM ([4]; 200 mM β-NMN in R1 reagent, FIG. 4A) | relative activity value of LDH, dependency on β-NMN concentration [5] | relative activity value of LDH, dependency on β-NMN concentration [4] |
| --- | --- | --- | --- | --- | --- | --- |
| NC(=O)c1ccc[n+]([C@@H]2O[C@H](COP(=O)([O-])O)[C@@H](O)[C@H]2O)c1 [Production Example 1, β-nicotinamide mononucleotide] | lower when the β-NMN compound of Production Example 1 was added than when the β-NMN compound of the β-NMN product 3 was added | 39 unit | higher when the β-NMN compound of Production Example 1 was added than when the β-NMN compound of the β-NMN product 3 was added | – | – | – |
| NC(=O)c1ccc[n+]([C@@H]2O[C@H](COP(=O)([O-])O)[C@@H](O)[C@H]2O)c1 [Production Example 2, β-nicotinamide mononucleotide] | – | 40 unit | – | – | – | – |
| NC(=O)c1ccc[n+]([C@@H]2O[C@H](COP(=O)([O-])O)[C@@H](O)[C@H]2O)c1 [Production Example 3, β-nicotinamide mononucleotide] | – | 38 unit | – | – | – | – |
| NC(=O)c1ccc[n+]([C@@H]2O[C@H](COP(=O)([O-])O)[C@@H](O)[C@H]2O)c1 [Production Example 4, β-nicotinamide mononucleotide] | – | 35 unit | – | – | – | – |
| NC(=O)c1ccc[n+]([C@@H]2O[C@H](COP(=O)([O-])O)[C@@H](O)[C@H]2O)c1 [β-NMN product 1, β-nicotinamide mononucleotide] | – | 23 unit | – | could not be measured | larger differences in the activity value from the β-NMN compound of Production Example 1 as the β-NMN concentration increased | – |
| NC(=O)c1ccc[n+]([C@@H]2O[C@H](COP(=O)([O-])O)[C@@H](O)[C@H]2O)c1 [β-NMN product 2, β-nicotinamide mononucleotide] | – | 27 unit | – | – | larger differences in the activity value from the β-NMN compound of Production Example 1 as the β-NMN concentration increased | the difference in the activity value from the β-NMN compound of Production Example 1 became larger as the β-NMN concentration increased |
| NC(=O)c1ccc[n+]([C@@H]2O[C@H](COP(=O)([O-])O)[C@@H](O)[C@H]2O)c1 [β-NMN product 3, β-nicotinamide mononucleotide] | – | 26 unit | – | – | larger differences in the activity value from the β-NMN compound of Production Example 1 as the β-NMN concentration increased | the difference in the activity value from the β-NMN compound of Production Example 1 became larger as the β-NMN concentration increased |
